Test results reported in ChEMBL document CHEMBL2424652, “Synthesis, characterization, and antimicrobial evaluation of novel trichalcones containing core s-triazine moiety” (2013).

Tests used:
Format in all cases: functional
[1] = system: Pectobacterium carotovorum; experiment: Antibacterial activity against Erwinia carotovora at 200 ug/mL after 24 hrs by disc diffusion method; details: read-out: DIZ
[2] = system: Staphylococcus aureus; experiment: Antibacterial activity against Staphylococcus aureus at 200 ug/mL after 24 hrs by disc diffusion method; details: read-out: DIZ
[3] = system: Proteus vulgaris; experiment: Antibacterial activity against Proteus vulgaris at 200 ug/mL after 24 hrs by disc diffusion method; details: read-out: DIZ
[4] = Antibacterial activity against Xanthomonas citri at 200 ug/mL after 24 hrs by disc diffusion method; details: read-out: DIZ
[5] = system: Curvularia; experiment: Antifungal activity against Curvularia lunata at 200 ug/mL after 48 hrs by disc diffusion method; details: for zone of inhibition at 200 µg/mL: read-out: DIZ
[6] = system: Alternaria; experiment: Antifungal activity against Alternaria at 200 ug/mL after 48 hrs by disc diffusion method; details: for zone of inhibition at 200 µg/mL: read-out: DIZ

| Molecule | zone of inhibition at 200 µg/mL [1] [mm] | zone of inhibition at 200 µg/mL [2] [mm] | zone of inhibition at 200 µg/mL [3] [mm] | zone of inhibition at 200 µg/mL [4] [mm] | zone of inhibition at 200 µg/mL [5] [mm] | zone of inhibition at 200 µg/mL [6] [mm] | inhibition zone (IZ) [5] [mm] | inhibition zone (IZ) [6] [mm] |
| --- | --- | --- | --- | --- | --- | --- | --- | --- |
| CC1(C)S[C@@H]2[C@H](NC(=O)Cc3ccccc3)C(=O)N2[C@H]1C(=O)O [PENICILLIN G] | 15 | 15 | 15 | 15 |  |  |  |  |
| O=C(/C=C/c1ccc(Oc2nc(Oc3ccc(/C=C/C(=O)c4cccc([N+](=O)[O-])c4)cc3)nc(Oc3ccc(/C=C/C(=O)c4cccc([N+](=O)[O-])c4)cc3)n2)cc1)c1cccc([N+](=O)[O-])c1 | 6 | 7.13 | 10 | 7.96 | 6.96 | 7.96 |  |  |
| COc1ccc(C(=O)/C=C/c2ccc(Oc3nc(Oc4ccc(/C=C/C(=O)c5ccc(OC)cc5)cc4)nc(Oc4ccc(/C=C/C(=O)c5ccc(OC)cc5)cc4)n3)cc2)cc1 | 8.06 | 7.86 | 6.96 | 8.86 | 13.2 | 10.2 |  |  |
| O=C(/C=C/c1ccc(Oc2nc(Oc3ccc(/C=C/C(=O)c4ccccc4)cc3)nc(Oc3ccc(/C=C/C(=O)c4ccccc4)cc3)n2)cc1)c1ccccc1 | 7.93 | 10 | 7.83 | 6.96 | 6.16 | 5.1 |  |  |
| COc1cc(C(=O)/C=C/c2ccc(Oc3nc(Oc4ccc(/C=C/C(=O)c5cc(OC)c(OC)c(OC)c5)cc4)nc(Oc4ccc(/C=C/C(=O)c5cc(OC)c(OC)c(OC)c5)cc4)n3)cc2)cc(OC)c1OC | 12.3 | 13 | 11.1 | 10.1 | 14.1 | 13.2 |  |  |
| O=C(/C=C/c1ccc(Oc2nc(Oc3ccc(/C=C/C(=O)c4ccc([N+](=O)[O-])cc4)cc3)nc(Oc3ccc(/C=C/C(=O)c4ccc([N+](=O)[O-])cc4)cc3)n2)cc1)c1ccc([N+](=O)[O-])cc1 | 6.96 | 4.93 | 5.9 | 6.1 | 8.2 | 7 |  |  |
| O=C(/C=C/c1ccc(Oc2nc(Oc3ccc(/C=C/C(=O)c4ccc(Br)cc4)cc3)nc(Oc3ccc(/C=C/C(=O)c4ccc(Br)cc4)cc3)n2)cc1)c1ccc(Br)cc1 | 13 | 9.96 | 11.9 | 11.1 | 10.1 | 6.16 |  |  |
| O=C(/C=C/c1ccc(Oc2nc(Oc3ccc(/C=C/C(=O)c4ccc(Cl)cc4)cc3)nc(Oc3ccc(/C=C/C(=O)c4ccc(Cl)cc4)cc3)n2)cc1)c1ccc(Cl)cc1 | 8.06 | 12.1 | 14 | 10.1 | 7.2 | 8.03 |  |  |
| COc1ccc(OC)c(C(=O)/C=C/c2ccc(Oc3nc(Oc4ccc(/C=C/C(=O)c5cc(OC)ccc5OC)cc4)nc(Oc4ccc(/C=C/C(=O)c5cc(OC)ccc5OC)cc4)n3)cc2)c1 | 9.1 | 9.1 | 7.86 | 10 | 12.2 | 12.2 |  |  |
| NYSTATIN |  |  |  |  |  |  | 15 | 15 |
| COc1ccc(C(=O)/C=C/c2ccc(Oc3nc(Oc4ccc(/C=C/C(=O)c5ccc(OC)c(OC)c5)cc4)nc(Oc4ccc(/C=C/C(=O)c5ccc(OC)c(OC)c5)cc4)n3)cc2)cc1OC | 12.2 | 9.9 | 12.3 | 11.1 | 12.1 | 12.1 |  |  |
| Cc1ccc(C(=O)/C=C/c2ccc(Oc3nc(Oc4ccc(/C=C/C(=O)c5ccc(C)cc5)cc4)nc(Oc4ccc(/C=C/C(=O)c5ccc(C)cc5)cc4)n3)cc2)cc1 | 8.03 | 7.93 | 10 | 10.1 | 6.96 | 5.16 |  |  |
